“Also recorded” adds a separate entry of the source. Where two headings read alike, the source gives them in different places.
How the values were obtained:
[1] = tested on: fasting glucose, glycated albumin; conditions: 4.0 g, one month; cited from earlier work
HbA1c = conditions: cited from earlier work
[2] = tested on: fasting glucose, glycated albumin, TG, total cholesterol; conditions: cited from earlier work; for fall in fasting glucose levels: two weeks
[3] = Hydrolysis of ST0702 in 50% human plasma; format: in vitro ADME; conditions: 50% human plasma diluted with pH 7.4 buffer, 37° C.
Description: FIG. 1 depicts a progress curve for the disappearance of isosorbide-2-aspirinate-5-nicotinate (ST0702) following incubation (in vitro) in 50% human plasma diluted with pH 7.4 buffer at 37° C.
A Waters Spherisorb® (4 μm) C18 3.9×250 mm column was used for the plasma and enzyme study samples. The enzyme and plasma study samples were analysed using a gradient method employing a mobile phase consisting of pH 3.19 phosphate buffer:acetonitrile 90:10 grading to 10:90 over the first ten minutes then back to 65:35 to 12 minutes and grading to 90:10 to 17 minutes at which it was held to 30 minutes. The eluent in both methods was monitored at 230 nm and peak identity and homogeneity confirmed by PDA analysis. Quantitation was performed by comparison of peak areas with external standards run under the same conditions at about the same concentration. The flow rate was 1 ml/min.
For the hydrolysis experiments pooled plasma or serum solutions (4 ml) were prepared by centrifugation of citrated human venous blood and dilution with pH 7.4 phosphate buffer as appropriate. Whole blood was used undiluted. […] 20 μl aliquots of the supernatant were analysed by HPLC. Hydrolysis was monitored until consumption of the parent ester. […] Cholinesterase activity of plasma, serum and whole blood was evaluated using the Ellman approach with butyryl thiocholine as substrate. […]

[4] = Incubation with pig intestinal S9 fraction; format: in vitro ADME
Description: FIG. 2 depicts a progress curve for the disappearance of ST0702 following incubation with pig intestinal S9 fraction.
(§1) Hydrolysis kinetics of isosorbide diaspirinate,” Eur. J. Pharm. Sciences 16 2002 297-304.

[5] = Incubation with microsomes from the human intestinal wall; format: in vitro ADME
Description: FIG. 7 depicts a progress curve following incubation of ST0702 in the presence of microsomes from the human intestinal wall.
as §1

[6] = tested on: LDL cholesterol, Apolipoprotein B, TGs; test: NHP crossover study: clinical chemistry (LDL-C, ApoB, TG)
Description: (§3) The primary study endpoint is change in plasma LDL cholesterol and Apolipoprotein B at 48 hours. An aliquot of 300 μL of serum transferred to a cryovial and was immediately placed in a freezer set to maintain −70° C. until analyzed for clinical chemistry (LDL cholesterol, Apolipoprotein B, TGs, glucose) using a standard Roche Analyser.

[7] = Incubation in diluted human intestinal contents; format: in vitro ADME; conditions: prolonged period
Excerpt: as §1

[8] = pH 7.4
Description: Microsomes from human hepatocytes (post mortem tissue) were diluted with pH 7.4 buffer and the suspension warmed to 37° C. ST0702 was introduced and samples withdrawn at successive time intervals.
Hydrolysis kinetics of isosorbide diaspirinate,” Eur. J. Pharm.

thromboxane B2 (TxB2) = test: NHP crossover study: ex-vivo serum TxB2; format: in vivo, cynomolgus monkeys
Description: (§2) For TxB2, an additional 0.4 mL whole blood aliquots were placed in siliconised glass tubes to induce a clotting response and the supernatants were analysed for TxB2 using a Luminex ELISA immunoassay. PGD2 was analysed from serum directly using a Luminex ELISA immunoassay.

serum glucose = test: NHP crossover study: serum glucose
Description: as §3

prostaglandin D2 (PGD2) = test: NHP crossover study: serum PGD2; format: in vivo, cynomolgus monkeys
Description: as §2

[9] = Incubation with mouse intestinal preparation; format: in vitro ADME
[10] = Incubation in human gastric juice; format: in vitro ADME; conditions: over 60 minutes
Excerpt: as §1

[11] = Incubation with rat intestinal preparation; format: in vitro ADME
[12] = Stomach irritation on administration of compound I; format: in vivo; conditions: statement in description; test not named
Description: Therefore, stomach irritation is not observed with the administration of isosorbide-2-acetylsalicylate-5-nicotinic acid (I). […] In some embodiments, the present invention provides a composition comprising isosorbide-2-acetylsalicylate-5-nicotinic acid (I) wherein the composition protects the gastrointestinal mucosa from irritation and inflammation.
Ulcerogenic effects of aspirin and aspirin pro-drugs ST0701, ST0702, and ST0703 were determined in rabbits using the following procedure. Healthy female rabbits (n=2 per group) were dosed (by oral gavage) for 3 consecutive days with 30 mg/kg of aspirin or the molar equivalent of ST0702 and the other pro drugs. Four hours post-dose on the final day, the rabbits were euthanized using an overdose of pentobarbitone and their stomachs and small intestine removed, washed with physiological saline, opened along the greater curvature and examined. The area (square millimeters) of both non-haemorrhagic and haemorrhagic lesions developed in the stomach/intestines were measured with a square grid under a dissecting microscope.

[13] = Incubation with rabbit intestinal preparation; format: in vitro ADME
TG, LDL, HDL = conditions: atorvastatin 10 mg/day, Slo-Niacin to 1500 mg/day, 3-month segments; cited from earlier work
[14] = tested on: LDL cholesterol, HDL cholesterol, TG; conditions: adult dyslipidemias; cited from earlier work
[15] = cited from earlier work
[16] = cited from earlier work; remark: listed apart in the source
[17] = cited from earlier work; remark: listed apart in the source
[18] = cited from earlier work; remark: listed apart in the source
PGD2 receptor-1 (DP1) = PGD2 receptor-1 (DP1) (Homo sapiens, UniProt Q13258); conditions: cited from earlier work; for reduction of flushing associated with 1.5 g ER nicotinic acid: single dose study
[19] = baseline to 48 hours, 28 mg/kg niacin equivalents daily oral gavage, n=6
[20] = high risk patients (secondary prevention)

PGD2 receptor-1 (DP1), sequence (Q13258 whole entry): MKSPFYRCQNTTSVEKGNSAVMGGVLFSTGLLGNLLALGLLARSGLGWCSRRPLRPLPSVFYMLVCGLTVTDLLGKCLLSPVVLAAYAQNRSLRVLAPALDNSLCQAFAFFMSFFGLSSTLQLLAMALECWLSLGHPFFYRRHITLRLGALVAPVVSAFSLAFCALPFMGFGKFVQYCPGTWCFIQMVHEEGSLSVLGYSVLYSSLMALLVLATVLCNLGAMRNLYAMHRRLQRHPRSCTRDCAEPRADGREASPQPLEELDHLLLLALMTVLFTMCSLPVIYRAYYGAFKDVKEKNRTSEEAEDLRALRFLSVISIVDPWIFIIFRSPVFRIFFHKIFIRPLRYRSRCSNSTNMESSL

O=C(Oc1ccccc1C(=O)O)c1ccccc1O [salsalate]
reduction of fasting glucose compared with placebo [1]: 13%
reduction of glycated albumin [1]: 17%
reduction of glycemic response after an oral glucose challenge [1]: 20%
mean change in HbA1c levels compared with placebo (HbA1c; 3.0 g daily): −0.36%
mean change in HbA1c levels compared with placebo (HbA1c; 3.5 g daily): −0.34%
mean change in HbA1c levels compared with placebo (HbA1c; 4.0 g daily): −0.49%
fall in fasting glucose levels ([2]; 3.0 g/daily): 9%
decrease in TG concentrations ([2]; 3.0 g): 11%
fall in fasting glucose levels ([2]; 4.5 g daily): 19%
reduction in glycated albumin ([2]; 4.5 g dose): 19%
decrease in TG concentrations ([2]; 4.5 g): 40%
fall in total cholesterol ([2]; in vivo): 12%

CC(=O)Oc1ccccc1C(=O)O[C@H]1CO[C@H]2[C@@H]1OC[C@H]2OC(=O)c1cccnc1 [ST0702, isosorbide-2-aspirinate-5-nicotinate]
disappearance of ST0702 / conversion to hydrolysis products [3]: rapid conversion to a series of hydrolysis products
aspirin production from ST0702 [4]: do not produce aspirin
hydrolysis pattern in human intestinal wall microsomes [5]: hydrolysis predominantly at the isosorbide-2-position liberating aspirin and isosorbide-5-nicotinate
TG levels at 48 hours (follow up) ([6]; 48 hours): 55 ± 24 mg/dL
TG levels at baseline ([6]; baseline): 59 ± 29 mg/dL
increase in TG levels (non-significant) ([6]; baseline to 48 hours): 4.4%
reduction from baseline in LDL cholesterol [6, 19]: 53%
reduction from baseline in apolipoprotein B [6, 19]: 42%
stability in human intestinal contents [7]: effectively unchanged
hydrolysis pattern in human liver microsomes [8]: more significant direct hydrolysis at position 5 leading to direct nicotinic acid production
serum TxB2 suppression (thromboxane B2 (TxB2); at 24 and 48 hours): > 95%
serum TxB2 levels (thromboxane B2 (TxB2); from 15 minutes on, within group and vs niacin): significantly reduced
serum glucose change from baseline (serum glucose; 1 hour post dose): significant decrease
plasma glucose versus baseline (serum glucose; 4 hours post dose): remained below baseline levels; also recorded: significant reduction
reduction in PGD2 AUC levels compared to nicotinic acid (prostaglandin D2 (PGD2); over 24 hours): 8 fold
PGD2 AUC (prostaglandin D2 (PGD2); over 24 hours post dosing, equimolar doses): 16.2 ± 6.4 ng·h/mL
aspirin production from ST0702 [9]: do not produce aspirin
metabolism in human gastric juice [10]: not metabolized
aspirin production from ST0702 [11]: do not produce aspirin
stomach irritation [12]: not observed
aspirin production from ST0702 [13]: do not produce aspirin

CC(C)c1c(C(=O)Nc2ccccc2)c(-c2ccccc2)c(-c2ccc(F)cc2)n1CC[C@@H](O)C[C@@H](O)CC(=O)O [Atorvastatin]
HDL (TG, LDL, HDL): +6%
LDL (TG, LDL, HDL): −36%
TG (TG, LDL, HDL): −26%

O=C1[C@H](CC[C@H](O)c2ccc(F)cc2)[C@@H](c2ccc(O)cc2)N1c1ccc(F)cc1 [Ezetimibe]
HDL cholesterol [14]: +3%
LDL cholesterol [14]: −18 to −24%
TG [14]: No change

CC(=O)Oc1ccccc1C(=O)O [aspirin]
patients with at least occult bleeding ([15]; daily aspirin use even at low doses): More than 75%
absolute annual increased risk of major bleeding episodes ([15]; low dose aspirin (75-325 mg daily), 22 randomized trials): 1.3 per 1000 patients
prevention of non-fatal vascular events [16, 20]: about 30%
prevention of vascular death [16, 20]: approximately 15%
risk reduction ([16]; patients with unstable angina): approximately 50%
reductions in risk of MI ([16]; primary prevention): 25%-33
avoidance of a major vascular event ([16]; prior MI, stroke, or TIA, approximately 30 months): 36 per 1,000 patients
avoidance of a major vascular event ([16]; unstable angina, treated for 6 months): 50 per 1,000 patients
effect on flushing symptoms ([17]; 325 mg, 30-60 minutes before IR nicotinic acid): attenuated flushing symptoms
patients with moderate or greater flushing ([17]; first week of treatment, with vs without aspirin): 15%
flushing-specific discontinuation rate ([17]; four week study, 325 mg aspirin before ER nicotinic acid vs no aspirin): 1.8%
reduction of the incidence of flushing ([17]; pre-treatment with aspirin): 18%
mean rate of treatment discontinuation because of nicotinic acid flushing ([17]; with adjunctive aspirin): approximately 6.5%
Lowest effective daily dose ([18]; Acute MI): 160 mg
Lowest effective daily dose ([18]; Acute ischaemic stroke): 160 mg
Lowest effective daily dose ([18]; Hypertension): 75 mg
Lowest effective daily dose ([18]; Men at high CV risk): 75 mg
Lowest effective daily dose ([18]; Polycythemia): 100 mg
Lowest effective daily dose ([18]; Severe carotid artery stenosis): 75 mg
Lowest effective daily dose ([18]; Stable angina): 75 mg
Lowest effective daily dose ([18]; TIA and ischaemic stroke): 50 mg
Lowest effective daily dose ([18]; Unstable angina): 75 mg

CS(=O)(=O)c1cc(F)cc2c3c(n(Cc4ccc(Cl)cc4)c12)[C@@H](CC(=O)O)CC3 [laropiprant]
reduction of flushing associated with 1.5 g ER nicotinic acid (PGD2 receptor-1 (DP1); 30 mg dose): 47%
reduction of flushing associated with 1.5 g ER nicotinic acid (PGD2 receptor-1 (DP1); 100 mg dose): 67%
reduction of flushing associated with 1.5 g ER nicotinic acid (PGD2 receptor-1 (DP1); 300 mg dose): 74%
overall discontinuation rate (PGD2 receptor-1 (DP1); 4,700 patients, ER nicotinic acid without vs with added laropiprant): 25.3%
rate of moderate/severe flushing (PGD2 receptor-1 (DP1); nicotinic acid without vs with added laropiprant (Kush 2009)): 24%

From patent publication US8834858B2, “Treatment for dyslipidemia” (Solvotrin Therapeutics Ltd., priority 2011, dated 2014)
